Assay results reported in patent publication US9023844B2, “Heterocyclylpyri (mi) dinylpyrazole as fungicidals” (Bayer Intellectual Property GmbH, priority 2011, dated 2015).
Read-outs that look alike come from different tables or passages of the source.

Experiments:
[1] = Determination of log P values by HPLC on a reverse phase column (C18), EEC-Directive 79/831 Annex V.A8 (Methods A, B, C); assay type: physicochemical; conditions: for chromatographic logP: reverse phase C18 HPLC column
How it was run: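 Three C18 chromatographic methods following EEC-Directive 79/831 Annex V.A8 gave the logP values. Method C (UPLC, 2.1 mm column) ran at 40 °C and 0.8 mL/min with a 3.25 min 10–95% acetonitrile gradient. Methods A and B both ran at 55 °C and 2.0 mL/min, with gradients of 10–95% in 4.25 min and 5–95% in 1.70 min.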

Sphaerotheca fuliginea [2] = test: Example A: Sphaerotheca test (cucumber) / preventive; assay type: in vivo; conditions: in vivo
Uromyces appendiculatus [3] = test: Example B: Uromyces test (beans) / preventive; assay type: in vivo; conditions: in vivo
Leptosphaeria nodorum = test: Example C: Leptosphaeria test (wheat) / preventive; assay type: in vivo; conditions: in vivo
Pyrenophora teres [4] = test: Example D: Pyrenophora test (barley) / preventive; assay type: in vivo; conditions: in vivo
Puccinia recondita [5] = test: Example E: Puccinia test (wheat) / preventive; assay type: in vivo; conditions: in vivo
Pyricularia oryzae [6] = assay type: in vivo; conditions: in vivo
Phytophthora infestans [7] = assay type: in vivo; conditions: in vivo
Plasmopara viticola = test: Example H: Plasmopara test (grapevines) / preventive; assay type: in vivo; conditions: in vivo
Septoria tritici [8] = test: Example J: Septoria tritici test (wheat) / preventive; assay type: in vivo; conditions: in vivo
[9] = test system: Fusarium nivale (var. majus); test: Example K: Fusarium nivale (var. majus) test (wheat) / preventive; assay type: in vivo; conditions: 500 ppm of active ingredient, preventive spray, evaluated 5 days after inoculation
Protocol: After the spray coating has been dried, the plants are slightly injured by using a sandblast and afterwards they are sprayed with a conidia suspension of Fusarium nivale (var. majus).
The test is evaluated 5 days after the inoculation.

Fusarium graminearum [10] = assay type: in vivo; conditions: in vivo
[11] = test system: DON/Acetyl-DON production by Fusarium graminearum; test: microbe, parasite or virus in culture; assay type: cell-based
Fusarium graminearum [12] = test: microbe, parasite or virus in culture; assay type: cell-based
Venturia inaequalis = test: Example I: Venturia test (apples) / preventive; conditions: 100 ppm of active ingredient, preventive spray, evaluated 10 days after inoculation
Protocol: After the spray coating has dried on, the plants are inoculated with an aqueous conidia suspension of the causal agent of apple scab (Venturia inaequalis) and then remain for 1 day in an incubation cabinet at approximately 20° C. and a relative atmospheric humidity of 100%.
The plants are then placed in a greenhouse at approximately 21° C. and a relative atmospheric humidity of approximately 90%.
The test is evaluated 10 days after the inoculation.

Pyrenophora teres [13] = conditions: in vivo
Pyricularia oryzae [14] = assay type: in vivo
Puccinia recondita [15] = conditions: in vivo
Septoria tritici [16] = conditions: in vivo
Sphaerotheca fuliginea [17] = conditions: in vivo
Botrytis cinerea = test: Example N: in vivo preventive test on Botrytis cinerea (grey mould); conditions: dose of 500 ppm; gherkin plants; grading 4-5 days after contamination
Protocol: The active ingredients tested are prepared by homogenization in a mixture of acetone/tween/DMSO and then diluted with water to obtain the desired active material.
Gherkin plants (“Vert petit de Paris” variety), sown in starter cups on a 50/50 peat soil-pozzolana substrate and grown at 24° C., are treated at the Z11 cotyledon stage by spraying with the active ingredient prepared as described above. Plants, used as controls, are treated with the mixture of acetone/tween/DMSO/water not containing the active material.
After 24 hours, the plants are contaminated by spraying the cotyledons with an aqueous suspension of cryopreserved Botrytis cinerea spores (50 000 spores per ml). The spores are suspended in a nutrient solution composed of 10 g/L of PDB, 50 g/L of D-Fructose, 2 g/L of NH4NO3 and 1 g/L of KH2PO4. The contaminated gherkin plants are incubated at 17° C. and at 80% relative humidity.
Grading (% of efficacy) is carried out 4-5 days after the contamination, in comparison with the control plants.

Phytophthora infestans [18] = conditions: in vivo
Uromyces appendiculatus [19] = conditions: in vivo
Alternaria brassicae = conditions: in vivo
[20] = Method B (HPLC, reverse phase C18)
[21] = Method A: HPLC, reverse phase C18, acetonitrile (0.1% formic acid)/water (0.09% formic acid) gradient

| Compound | LogP [1, 20] | efficacy (Phytophthora infestans [7]) [%] | efficacy (Plasmopara viticola) [%] | Inhibition of DON/AcDON in % ([11]; at 50 μM) [%] | Growth inhibition of Fusarium graminearum in % (Fusarium graminearum [12]; at 50 μM) [%] | efficacy (Venturia inaequalis) [%] | LogP [1, 21] | protection (% of efficacy) (Pyrenophora teres [13]) [%] | protection (% of efficacy) (Pyricularia oryzae [14]; in vivo) [%] | protection (% of efficacy) (Puccinia recondita [15]) [%] | protection (% of efficacy) (Sphaerotheca fuliginea [17]) [%] | protection (% of efficacy) (Botrytis cinerea) [%] | also measured |
| --- | --- | --- | --- | --- | --- | --- | --- | --- | --- | --- | --- | --- | --- |
| CCC(C)C(=O)Nc1cc(-c2c(-c3ccccc3)nn3c2OCCC3)ccn1 (stereo not shown) [Example 10] | 1.63 | 95 | 94 | 100 | 95 | 99 |  |  |  |  |  |  | efficacy (Sphaerotheca fuliginea [2]): 100%; efficacy (Uromyces appendiculatus [3]): 94%; efficacy (Leptosphaeria nodorum): 80%; efficacy (Pyrenophora teres [4]): 80%; efficacy (Puccinia recondita [5]): 100%; efficacy (Pyricularia oryzae [6]): 94%; efficacy (Septoria tritici [8]): 86%; efficacy [9]: 100%; efficacy (Fusarium graminearum [10]): 90% |
| CC(C)C(=O)Nc1cc(-c2c(-c3ccc(F)cc3)nn3c2OCCC3)ccn1 [Example 22] | 1.54 | 95 | 100 | 100 | 99 | 99 |  |  |  |  |  |  | efficacy (Sphaerotheca fuliginea [2]): 100%; efficacy (Uromyces appendiculatus [3]): 94%; efficacy (Leptosphaeria nodorum): 90%; efficacy (Pyrenophora teres [4]): 95%; efficacy (Puccinia recondita [5]): 100%; efficacy (Pyricularia oryzae [6]): 94%; efficacy (Septoria tritici [8]): 100%; efficacy [9]: 100%; efficacy (Fusarium graminearum [10]): 100% |
| O=C(Nc1cc(-c2c(-c3ccc(F)cc3)nn3c2OCCC3)ccn1)C1CCOCC1 [Example 28] | 1.37 | 95 | 92 | 99 | 94 | 98 |  |  |  |  |  |  | efficacy (Sphaerotheca fuliginea [2]): 100%; efficacy (Uromyces appendiculatus [3]): 94%; efficacy (Leptosphaeria nodorum): 95%; efficacy (Pyrenophora teres [4]): 95%; efficacy (Puccinia recondita [5]): 100%; efficacy (Pyricularia oryzae [6]): 94%; efficacy (Septoria tritici [8]): 88%; efficacy [9]: 100%; efficacy (Fusarium graminearum [10]): 86% |
| CCC(=O)N(C(=O)CC)c1cc(-c2c(-c3ccc(F)cc3)nn3c2OCCC3)ccn1 [Example 53] |  | 95 | 98 | 100 | 79 | 100 | 2.74 |  |  |  |  |  | efficacy (Sphaerotheca fuliginea [2]): 95%; efficacy (Uromyces appendiculatus [3]): 74%; efficacy (Leptosphaeria nodorum): 90%; efficacy (Pyrenophora teres [4]): 100%; efficacy (Puccinia recondita [5]): 95%; efficacy (Pyricularia oryzae [6]): 90%; efficacy (Septoria tritici [8]): 75%; efficacy [9]: 100%; efficacy (Fusarium graminearum [10]): 100% |
| O=C(Nc1cc(-c2c(-c3ccc(F)cc3)nn3c2OCCC3)ccn1)C1C2CCCCC21 (stereo not shown) [Example 65] | 2.13 |  |  |  |  |  |  | 71 | 80 |  |  |  |  |
| O=C(CN1CCCCC1)Nc1cc(-c2c(-c3ccc(F)cc3)nn3c2OCCC3)ccn1 [Example 66] | 1 |  |  |  |  |  |  |  | 80 | 81 | 94 |  | protection (% of efficacy) (Septoria tritici [16]): 79% |
| C[S+]([O-])C(C)(C)C(=O)Nc1cc(-c2c(-c3ccc(F)cc3)nn3c2OCCC3)ccn1 (stereo not shown) [Example 68] | 1.69 |  |  |  |  |  |  |  | 80 | 81 | 89 | 80 | protection (% of efficacy) (Septoria tritici [16]): 93% |
| O=C(Nc1cc(-c2c(-c3ccc(F)cc3)nn3c2OCCC3)ccn1)C1SCCS1 [Example 69] | 2.1 |  |  | 96 | 83 |  |  | 79 | 100 | 81 | 100 | 100 |  |
| CCC(=O)Nc1cc(-c2c(-c3ccc(F)cc3)nn3c2O[C@H](C)C[C@@H]3C)ccn1 [Example 73] |  |  |  | 100 | 83 |  | 1.74 | 94 | 90 | 88 | 100 |  | protection (% of efficacy) (Phytophthora infestans [18]): 85%; protection (% of efficacy) (Uromyces appendiculatus [19]): 86% |
| CCC(=O)Nc1cc(-c2c(-c3ccc(F)cc3)nn3c2OCC(F)(F)C3)ccn1 [Example 74] |  |  |  |  |  |  | 1.9 | 81 | 80 | 88 | 94 |  | protection (% of efficacy) (Phytophthora infestans [18]): 79% |
| CCC(=O)Nc1cc(-c2c(-c3ccc(F)cc3)nn3c2OC(C)C3C)ccn1 (stereo not shown) [Example 75] |  |  |  | 100 | 88 |  | 1.67 | 98 | 90 | 88 | 100 |  | protection (% of efficacy) (Phytophthora infestans [18]): 95%; protection (% of efficacy) (Uromyces appendiculatus [19]): 100% |
| CCC(=O)Nc1cc(-c2c(-c3ccc(F)cc3)nn3c2OC[Si](C)(C)C3)ccn1 [Example 77] |  | 100 | 100 |  |  | 96 |  |  |  |  |  |  | LogP ([1]; Method C (HPLC, reverse phase C18)): 2.15; efficacy (Sphaerotheca fuliginea [2]): 95%; efficacy (Uromyces appendiculatus [3]): 94%; efficacy (Leptosphaeria nodorum): 94%; efficacy (Pyrenophora teres [4]): 95%; efficacy (Puccinia recondita [5]): 100%; efficacy (Pyricularia oryzae [6]): 90%; efficacy (Septoria tritici [8]): 71%; efficacy [9]: 90%; efficacy (Fusarium graminearum [10]): 100%; Inhibition of DON/AcDON in % ([11]; 50 µM): 100%; Growth inhibition of Fusarium graminearum in % (Fusarium graminearum [12]; 50 µM): 91% |
| C[Si]1(C)COc2c(-c3ccnc(N)c3)c(-c3cccs3)nn2C1 [Example 89, 4-[3,3-dimethyl-7-(2-thienyl)-3,4-dihydro-2H-pyrazolo[5,1-b][1,3,5]oxazasilin-8-yl]pyridin-2-amine] |  |  |  |  |  |  |  |  |  |  |  |  | chromatographic logP ([1]; Method C (HPLC, reverse phase C18), read-out: LogP): 1.55; chromatographic logP ([1]; pH 2.3, intermediates of formula [II], HPLC, reverse phase C18, read-out: LogP (pH 2.3)): 1.55; protection (% of efficacy) (Pyricularia oryzae [14]; dose of 500 ppm, rice plants, grading 6 days after contamination): 75% |
| CCC(=O)N(C(=O)CC)c1cc(-c2c(-c3ccc(F)cc3F)nn3c2OCCC3)ccn1 [Example 95] |  |  |  | 97 | 77 |  | 2.68 |  | 83 |  |  |  |  |
| CCC(=O)Nc1cc(-c2c(-c3ccc(F)cc3)nn3c(C)coc23)ccn1 [Example 103] |  |  |  |  |  |  | 1.86 |  |  |  |  | 80 | protection (% of efficacy) (Alternaria brassicae): 93% |
| CCC(=O)Nc1cc(-c2c(-c3ccc(F)cc3)nn3c(CC)coc23)ccn1 [Example 104] |  | 93 | 95 |  |  | 93 | 2.23 |  | 75 |  |  | 85 | protection (% of efficacy) (Alternaria brassicae): 79%; protection (% of efficacy) (Uromyces appendiculatus [19]): 88% |
| CCC(=O)Nc1cc(-c2c(-c3ccc(F)cc3)nn3ccoc23)ccn1 [Example 105] |  | 95 | 100 | 99 | 83 | 93 | 1.61 | 81 |  | 75 |  | 100 | protection (% of efficacy) (Alternaria brassicae): 93%; protection (% of efficacy) (Uromyces appendiculatus [19]): 96% |
| CCC(=O)Nc1cc(-c2c(-c3ccccc3)nn3ccoc23)ccn1 [Example 106] |  |  |  | 95 | 65 |  | 1.46 |  |  |  | 98 | 100 | protection (% of efficacy) (Alternaria brassicae): 79%; protection (% of efficacy) (Uromyces appendiculatus [19]): 81% |
